Values of other authors as cited in patent publication US12115139B2, “Treatment methods and processes for an infected nail” (priority 2018, dated 2024).
Values joined by “and” are separate entries in the source; they are usually repeats but may differ in a detail not shown here. Equal entries are not always repeated. Structures can show the parent of a compound that is named as a salt.

Test system: nail infections
Settings: for side effects compared with Lamisil: oral treatment

Q: For `CN(C/C=C/C#CC(C)(C)C)Cc1cccc2ccccc12` [Lamisil, terbinafine hydrochloride], which mycological cure rate (oral treatment of nail infections) is on record?
A: 46%

Q: Which “side effects compared with Lamisil” value does the source give for `CC[C@@H]([C@H](C)O)n1ncn(-c2ccc(N3CCN(c4ccc(OC[C@@H]5CO[C@@](Cn6cncn6)(c6ccc(F)cc6F)C5)cc4)CC3)cc2)c1=O` [Posaconazole] here?
A: fewer side effects

Q: With `C=C1CCN([C@H](C)[C@](O)(Cn2cncn2)c2ccc(F)cc2F)CC1` [efinaconazole] as the molecule, how does the cure rates (topical, only mild infections not involving the nail bed) read?
A: 17.8% and 15.2%

Q: For `CCC(C)(C)c1ccc(CC(C)CN2C[C@@H](C)O[C@@H](C)C2)cc1` (stereo partly shown) [Amorolfine, amorolfine], which “effectiveness against severe nail infections” value (topical, severe nail infections involving the nail bed) is on record?
A: not effective

Q: For `Cc1cc(C2CCCCC2)n(O)c(=O)c1` [Ciclopirox, ciclopirox], which cure rate (topical, 8% strength) is on record?
A: about 8.5%

Q: Which complete cure (topical, share of the 600 patients in the study) does the source give for `OB1OCc2cc(F)ccc21` [Tavaborole, tavaborole] here?
A: 6%

Q: For `C[C@@H](n1cnc2cc(Cl)ccc2c1=O)[C@](O)(Cn1cncn1)c1ccc(F)cc1F` [Albaconazole], which “side effects compared with Lamisil” value is on record?
A: fewer side effects
